Values of other authors as cited in patent publication US11094527B2, “Wet clean solutions to prevent pattern collapse” (INTERNATIONAL BUSINESS MACHINES CORPORATION, priority 2018, dated 2021).
Like-named read-outs stand apart in the source and are kept apart here.

Key:
[1] = not given; remark: listed apart in the source

Compound	Surface tension (at about 20° C.) [mN/m]	Water solubility (in words) [1]	Water solubility ([1]; 20° C.) [g/100 mL]	Water solubility ([1]; temperature not given)
Diethyl ether	16.5	low water solubility	6.9	–
CC(C)O [Isopropyl alcohol, reference compound]	<30	miscible in water	–	Miscible
c1ccccc1 [Benzene]	<30	–	–	–
